Where a name gives a salt, the structure may show the parent alone. Read-outs that look alike come from different tables or passages of the source.
Key:
[1] = molecular target: human RORγt ligand binding domain (RORγt LBD) (Homo sapiens (Human), UniProt P51449); assay: RORγt ThermoFluor® assay (thermal shift binding)
Method in brief: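 Thermal shift with 0.065 mg/mL RORγt LBD and 60 μM 1,8-ANS in 100 mM Hepes pH 7.0, 10 mM NaCl, 2.5 mM GSH, 0.002% Tween-20.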

full-length human RORγt = full-length human RORγt (Homo sapiens (Human), UniProt P51449); assay: RORγt (full-length human) reporter assay, conditions A or B, HEK293T cells; assay type: cell-based; settings: for IC50: RORγt (FL) Reporter Assay A or B, IC50, HEK293T cells; for inhibition at 3 µM: 3 μM compound concentration (footnote *)
Sequence of full-length human RORγt (P51449 other isoform, or with tags, fused parts or gaps): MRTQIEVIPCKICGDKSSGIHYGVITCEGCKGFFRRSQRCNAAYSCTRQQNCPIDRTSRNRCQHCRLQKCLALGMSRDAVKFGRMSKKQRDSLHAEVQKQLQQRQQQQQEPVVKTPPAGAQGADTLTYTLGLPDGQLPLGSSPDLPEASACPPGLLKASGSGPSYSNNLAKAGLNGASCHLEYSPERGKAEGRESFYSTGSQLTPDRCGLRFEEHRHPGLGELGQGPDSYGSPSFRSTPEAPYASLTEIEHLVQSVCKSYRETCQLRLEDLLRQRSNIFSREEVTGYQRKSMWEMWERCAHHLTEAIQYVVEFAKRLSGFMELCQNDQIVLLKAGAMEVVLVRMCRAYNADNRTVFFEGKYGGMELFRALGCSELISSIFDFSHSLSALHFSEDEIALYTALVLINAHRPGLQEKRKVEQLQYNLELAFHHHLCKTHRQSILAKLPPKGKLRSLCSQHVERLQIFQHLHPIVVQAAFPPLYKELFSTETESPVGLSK
Method in brief: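 After 16–20 h, dual firefly/Renilla luciferase luminescence was read. Firefly signal was normalized to DMSO and saturating reference compound, then to Renilla, and fitted for IC50; % inhibition is versus DMSO.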

[2] = read-out: ThermoFluor® Assay, Kd
[3] = HEK-293T, 2 μM compound concentration, read-out: RORγt (FL) Reporter Assay A or B, % inhibition
[4] = HEK-293T, 0.22 μM compound concentration (footnote *******), read-out: RORγt (FL) Reporter Assay A or B, % inhibition
[5] = HEK-293T, read-out: RORγt (FL) Reporter Assay A or B, % inhibition
[6] = HEK-293T, 0.11 μM compound concentration (footnote ********), read-out: RORγt (FL) Reporter Assay A or B, % inhibition

Sequence of human RORγt ligand binding domain (RORγt LBD) (P51449 other isoform, or with tags, fused parts or gaps): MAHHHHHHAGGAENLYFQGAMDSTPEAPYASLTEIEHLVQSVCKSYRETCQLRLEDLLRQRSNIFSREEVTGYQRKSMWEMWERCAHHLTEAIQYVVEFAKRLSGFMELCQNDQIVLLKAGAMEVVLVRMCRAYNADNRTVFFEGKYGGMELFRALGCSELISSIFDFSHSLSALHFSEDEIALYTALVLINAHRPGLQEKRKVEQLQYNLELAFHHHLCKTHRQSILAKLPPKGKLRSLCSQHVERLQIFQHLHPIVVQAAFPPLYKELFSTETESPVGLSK

CCn1nc(C(=O)NC[C@H]2CC[C@H](S(C)(=O)=O)CC2)c(Cl)c1-c1ccc(N[C@H](C)C(F)(F)F)cc1F [Example 181, 4-Chloro-1-ethyl-5-(2-fluoro-4-(((R)-1,1,1-trifluoropropan-2-yl)amino)phenyl)-N-(((1r,4R)-4-(methylsulfonyl)cyclohexyl)methyl)-1H-pyrazole-3-carboxamide]
Kd [1, 2]: 7 nM | inhibition at 2 µM (full-length human RORγt; [3]): 101% | IC50 (full-length human RORγt): 45 nM

CCn1nc(C(=O)NC[C@]2(O)CC[C@@H](S(C)(=O)=O)CC2)c(Cl)c1-c1c(F)cc(C[C@@H](C)C(F)(F)F)cc1F (single isomer, unassigned) [Example 199, 4-Chloro-5-(2,6-difluoro-4-((R*)-3,3,3-trifluoro-2-methylpropyl)phenyl)-1-ethyl-N-(((1s,4S)-1-hydroxy-4-(methylsulfonyl)cyclohexyl)methyl)-1H-pyrazole-3-carboxamide]
Kd ([1]; ThermoFluor® Assay, Kd): 14 nM | inhibition at 2 µM (full-length human RORγt; [3]): 75% | IC50 (full-length human RORγt): 58 nM

CCn1nc(C(=O)NC[C@H]2CC[C@H](S(C)(=O)=O)CC2)c(Cl)c1-c1ccc(CC(C)(C)C(F)(F)F)cc1OC(F)F [Example 2, 4-Chloro-5-(2-(difluoromethoxy)-4-(3,3,3-trifluoro-2,2-dimethylpropyl)phenyl)-1-ethyl-N-(((1r,4r)-4-(methylsulfonyl)cyclohexyl)methyl)-1H-pyrazole-3-carboxamide]
Kd [1, 2]: 0.16 nM | inhibition at […] (full-length human RORγt; [4]): 94% | IC50 (full-length human RORγt): 4.4 nM

CCn1nc(C(=O)NC[C@H]2CC[C@H](S(C)(=O)=O)CC2)c(Cl)c1-c1ccc(CCC(F)(F)F)cc1OC(F)(F)F [Example 189, 4-Chloro-1-ethyl-N-(((1r,4r)-4-(methylsulfonyl)cyclohexyl)methyl)-5-(2-(trifluoromethoxy)-4-(3,3,3-trifluoropropyl)phenyl)-1H-pyrazole-3-carboxamide]
Kd [1, 2]: 4.8 nM | inhibition at 2 µM (full-length human RORγt; [5]): 47% | IC50 (full-length human RORγt): > 2000 nM

CCn1nc(C(=O)NC[C@H]2CC[C@H](S(C)(=O)=O)CC2)c(Cl)c1-c1ccc(C[C@H](C)C(F)(F)F)cc1OC(F)F (single isomer, unassigned) [Example 55, 4-Chloro-5-(2-(difluoromethoxy)-4-((S*)-3,3,3-trifluoro-2-methylpropyl)phenyl)-1-ethyl-N-(((1r,4S)-4-(methylsulfonyl)cyclohexyl)methyl)-1H-pyrazole-3-carboxamide]
Kd ([1]; ThermoFluor® Assay, Kd): 0.35 nM | inhibition at […] (full-length human RORγt; [6]): 94% | IC50 (full-length human RORγt): 10 nM

CCn1nc(C(=O)NC[C@]2(O)CC[C@@H](S(C)(=O)=O)CC2)c(Cl)c1-c1ccc([C@](C)(O)CC(F)(F)F)cc1OC(F)F (single isomer, unassigned) [Example 100, 4-Chloro-5-(2-(difluoromethoxy)-4-((R*)-4,4,4-trifluoro-2-hydroxybutan-2-yl)phenyl)-1-ethyl-N-(((1s,4S)-1-hydroxy-4-(methylsulfonyl)cyclohexyl)methyl)-1H-pyrazole-3-carboxamide]
Kd ([1]; ThermoFluor® Assay, Kd): 69 nM | inhibition at 3 µM (full-length human RORγt; [5]): 49% | IC50 (full-length human RORγt): 220 nM

CCn1nc(C(=O)NC[C@H]2CC[C@H](S(C)(=O)=O)CC2)c(Cl)c1-c1ccc(CC(C)(C)CC(F)(F)F)cc1OC(F)F [Example 89, 4-Chloro-5-(2-(difluoromethoxy)-4-(4,4,4-trifluoro-2,2-dimethylbutyl)phenyl)-1-ethyl-N-(((1r,4r)-4-(methylsulfonyl)cyclohexyl)methyl)-1H-pyrazole-3-carboxamide]
Kd [1, 2]: 0.24 nM | inhibition at […] (full-length human RORγt; HEK-293T, 0.33 μM compound concentration (footnote *****), read-out: RORγt (FL) Reporter Assay A or B, % inhibition): 98% | IC50 (full-length human RORγt): 5.4 nM

CCn1nc(C(=O)NC[C@H]2CC[C@H](S(C)(=O)=O)CC2)c(C)c1-c1ccc(CCC(F)(F)F)cc1OC(F)F [Example 224, 5-(2-(Difluoromethoxy)-4-(3,3,3-trifluoropropyl)phenyl)-1-ethyl-4-methyl-N-(((1r,4r)-4-(methylsulfonyl)cyclohexyl)methyl)-1H-pyrazole-3-carboxamide]
Kd [1, 2]: 2.4 nM | inhibition at […] (full-length human RORγt; [6]): 95% | IC50 (full-length human RORγt): 0.44 nM

CCn1nc(C(=O)NC[C@@]2(O)CC[C@H](S(C)(=O)=O)C[C@@H]2O)c(Cl)c1-c1ccc(C[C@H](C)C(F)(F)F)cc1OC(F)F (stereo in doubt) [Example 52, 4-Chloro-5-(2-(difluoromethoxy)-4-((S*)-3,3,3-trifluoro-2-methylpropyl)phenyl)-N-(((1S*,2S*,4S*)-1,2-dihydroxy-4-(methylsulfonyl)cyclohexyl)methyl)-1-ethyl-1H-pyrazole-3-carboxamide]
Kd ([1]; ThermoFluor® Assay, Kd): 3.5 nM | inhibition at 3 µM (full-length human RORγt; [5]): 103% | IC50 (full-length human RORγt): 26 nM

CCn1nc(C(=O)NC[C@]2(O)CC[C@@H](S(C)(=O)=O)CC2)c(C#N)c1-c1ccc(CCC(F)(F)F)cc1OC [Example 124, 4-Cyano-1-ethyl-N-(((1s,4s)-1-hydroxy-4-(methylsulfonyl)cyclohexyl)methyl)-5-(2-methoxy-4-(3,3,3-trifluoropropyl)phenyl)-1H-pyrazole-3-carboxamide]
Kd [1, 2]: 170 nM | inhibition at 6 µM (full-length human RORγt; HEK-293T, read-out: RORγt (FL) Reporter Assay A or B, % inhibition @ 6 μM, 6 μM compound concentration): 83% | IC50 (full-length human RORγt): 770 nM

CCn1nc(C(=O)NC[C@H]2CC[C@H](S(=O)(=O)CC)CC2)c(Cl)c1-c1ccc(CC(C)(C)C(F)(F)F)cc1OC(F)F [Example 133, 4-Chloro-5-(2-(difluoromethoxy)-4-(3,3,3-trifluoro-2,2-dimethylpropyl)phenyl)-1-ethyl-N-(((1r,4r)-4-(ethylsulfonyl)cyclohexyl)methyl)-1H-pyrazole-3-carboxamide]
Kd ([1]; ThermoFluor® Assay, Kd): 0.2 nM | inhibition at […] (full-length human RORγt; [4]): 107% | IC50 (full-length human RORγt): 4.6 nM

CCn1nc(C(=O)NC[C@]2(O)CC[C@@H](S(N)(=O)=O)CC2)c(C)c1-c1ccc(C[C@H](C)C(F)(F)F)cc1OC(F)F (single isomer, unassigned) [Example 61, 5-(2-(difluoromethoxy)-4-((S*)-3,3,3-trifluoro-2-methylpropyl)phenyl)-1-ethyl-N-(((1s,4R)-1-hydroxy-4-sulfamoylcyclohexyl)methyl)-4-methyl-1H-pyrazole-3-carboxamide]
Kd ([1]; ThermoFluor® Assay, Kd): 6.5 nM | inhibition at 1 µM (full-length human RORγt; HEK-293T, 1 μM compound concentration (footnote ***), read-out: RORγt (FL) Reporter Assay A or B, % inhibition): 130% | IC50 (full-length human RORγt): 68 nM

CCn1nc(C(=O)NC[C@@H]2CC[C@@H](S(C)(=O)=O)CN2)c(Cl)c1-c1ccc(CC(C)(C)C(F)(F)F)cc1OC(F)F (stereo in doubt) [Example 10, 4-Chloro-5-(2-(difluoromethoxy)-4-(3,3,3-trifluoro-2,2-dimethylpropyl)phenyl)-1-ethyl-N-(((2S*,5R*)-5-(methylsulfonyl)piperidin-2-yl)methyl)-1H-pyrazole-3-carboxamide hydrobromide]
Kd ([1]; ThermoFluor® Assay, Kd): 2.6 nM | inhibition at 3 µM (full-length human RORγt; [5]): 103% | IC50 (full-length human RORγt): 25 nM

CCn1nc(C(=O)NC[C@H]2CC[C@H](S(C)(=O)=O)CC2)c(Cl)c1-c1ccc(CCC(C)C)cc1OC [Example 74, 4-Chloro-1-ethyl-5-(4-isopentyl-2-methoxyphenyl)-N-(((1r,4r)-4-(methylsulfonyl)cyclohexyl)methyl)-1H-pyrazole-3-carboxamide]
Kd [1, 2]: 0.33 nM | inhibition at 0.67 µM (full-length human RORγt; HEK-293T, 0.67 μM compound concentration (footnote ****), read-out: RORγt (FL) Reporter Assay A or B, % inhibition): 50% | IC50 (full-length human RORγt): 38 nM

CCn1nc(C(=O)NC[C@@]2(O)CC[C@H](S(C)(=O)=O)C[C@@H]2O)c(C)c1-c1ccc(C[C@H](C)C(F)(F)F)cc1OC(F)F (stereo in doubt) [Example 57, 5-(2-(Difluoromethoxy)-4-((S*)-3,3,3-trifluoro-2-methylpropyl)phenyl)-N-(((1S*,2S*,4S*)-1,2-dihydroxy-4-(methylsulfonyl)cyclohexyl)methyl)-1-ethyl-4-methyl-1H-pyrazole-3-carboxamide]
Kd ([1]; ThermoFluor® Assay, Kd): 5.7 nM | inhibition at 3 µM (full-length human RORγt; [5]): 95% | IC50 (full-length human RORγt): 35 nM

Cn1nc(C(=O)NC[C@@]2(O)CC[C@H](S(C)(=O)=O)C[C@@H]2O)c(Cl)c1-c1ccc(CCCC(F)(F)F)cc1OC(F)F (stereo in doubt) [Example 159, 4-Chloro-5-(2-(difluoromethoxy)-4-(4,4,4-trifluorobutyl)phenyl)-N-(((1S*,2S*,4S*)-1,2-dihydroxy-4-(methylsulfonyl)cyclohexyl)methyl)-1-methyl-1H-pyrazole-3-carboxamide]
Kd ([1]; ThermoFluor® Assay, Kd): 41 nM | inhibition at 3 µM (full-length human RORγt; [5]): 73% | IC50 (full-length human RORγt): 39 nM

CCn1nc(C(=O)NC[C@H]2CC[C@@H](S(C)(=O)=O)CN2)c(Cl)c1-c1ccc(CC(C)(C)C(F)(F)F)cc1OC(F)F (stereo in doubt) [Example 11, 4-Chloro-5-(2-(difluoromethoxy)-4-(3,3,3-trifluoro-2,2-dimethylpropyl)phenyl)-1-ethyl-N-(((2RS,5RS)-5-(methylsulfonyl)piperidin-2-yl)methyl)-1H-pyrazole-3-carboxamide Hydrobromide]
Kd ([1]; ThermoFluor® Assay, Kd): 35 nM | inhibition at 3 µM (full-length human RORγt; [5]): 100% | IC50 (full-length human RORγt): 190 nM

CCn1nc(C(=O)NC[C@H]2CC[C@H](S(C)(=O)=O)CC2)c(Cl)c1-c1ccc(CCC(F)(F)F)cc1Cl [Example 174, 4-Chloro-5-(2-chloro-4-(3,3,3-trifluoropropyl)phenyl)-1-ethyl-N-(((1r,4r)-4-(methylsulfonyl)cyclohexyl)methyl)-1H-pyrazole-3-carboxamide]
Kd [1, 2]: 5.9 nM | inhibition at 0.67 µM (full-length human RORγt; [5]): 40% | IC50 (full-length human RORγt): 38 nM

Source: patent US10975037B2 (priority 2018, dated 2021)
